pIC50: −log10 of the molar value.
How the values were obtained:
[1] = target: Neuraminidase (Influenza A virus (A/Puerto Rico/8/1934(H1N1))) (UniProt P03468); assay: (§1) Inhibition of Influenza A PR/8/34 H1N1 virus neuraminidase activity by MUN-ANA substrate based fluorimetric assay; set-up: unit not given here
[2] = target: Neuraminidase (Influenza A virus (A/Puerto Rico/8/1934(H1N1)), UniProt P03468); assay: as §1
Sequence of Neuraminidase (Influenza A virus (A/Puerto Rico/8/1934(H1N1)), UniProt P03468) (P03468 whole entry): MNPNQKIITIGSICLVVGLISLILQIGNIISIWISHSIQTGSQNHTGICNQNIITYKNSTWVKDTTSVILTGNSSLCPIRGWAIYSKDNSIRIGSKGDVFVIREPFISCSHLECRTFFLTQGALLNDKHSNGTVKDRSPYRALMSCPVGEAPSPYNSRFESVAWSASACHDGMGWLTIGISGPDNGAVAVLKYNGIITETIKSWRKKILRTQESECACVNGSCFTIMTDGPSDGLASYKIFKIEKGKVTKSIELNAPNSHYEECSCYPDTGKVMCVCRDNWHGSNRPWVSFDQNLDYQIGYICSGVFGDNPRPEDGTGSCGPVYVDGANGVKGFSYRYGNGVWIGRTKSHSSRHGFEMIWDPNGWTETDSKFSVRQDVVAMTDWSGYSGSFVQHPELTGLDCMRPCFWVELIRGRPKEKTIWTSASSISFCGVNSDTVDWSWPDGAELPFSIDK

Sequence of Neuraminidase (Influenza A virus (A/Puerto Rico/8/1934(H1N1))) (P03468 whole entry): as above

Compound COc1ccc(-c2cc(=O)c3c(O)c(Oc4ccc(-c5cc(=O)c6c(O)cc(OC)cc6o5)cc4)c(O[C@]4(C(=O)O)C[C@H](O)[C@@H](NC(C)=O)[C@H]([C@@H](O)[C@@H](O)CO)O4)cc3o2)cc1 has a logIC50 [1] of 1.28 and a pIC50 [2] of 4.65.

Work on O=C1/C(=C\c2ccccc2)Oc2cc(O)ccc21 yielded a logIC50 [1] of 1.23 and a pIC50 [2] of 4.14.

O=C(Oc1cc(O)c2c(c1)OC(c1cc(O)c(O)c(O)c1)CC2)c1cc(O)c(O)c(O)c1 (stereo unspecified) gave a logIC50 [1] of 1.2 and a pIC50 [2] of 4.45.

O=C1/C(=C\c2ccc(O)cc2)Oc2cc(O)ccc21 gave a logIC50 [1] of 0.748 and a pIC50 [2] of 4.66.

With O=c1c(O[C@H]2O[C@@H](CO)[C@H](O)[C@@H](O)[C@@H]2O[C@@H]2OC[C@@H](O)[C@H](O)[C@H]2O)c(-c2ccc(O)cc2)oc2cc(O)cc(O)c12 (stereo in doubt) the logIC50 [1] was 1.39 and the pIC50 [2] was 4.37.

In the case of COc1c(O)cc(O)c2c(=O)cc(-c3ccc(O)cc3)oc12 [4'-HYDROXYWOGONIN], the logIC50 [1] was 1.12 and the pIC50 [2] was 4.36.

For O=c1cc(-c2ccc(O)cc2)oc2cc(O)cc(O)c12 [APIGENIN], the logIC50 [1] was 0.932 and the pIC50 [2] was 4.50.

O=c1cc(-c2ccccc2)oc2cc(O)cc(O)c12 [CHRYSIN] showed a logIC50 [1] of 1.06 and a pIC50 [2] of 4.34.

Compound O=c1c(-c2ccc(O)cc2)coc2cc(O)ccc12 [DAIDZEIN] has a logIC50 [1] of 0.975 and a pIC50 [2] of 4.43.

For O=c1cc(-c2ccc(O)c(O)c2)oc2cc(O[C@@H]3O[C@H](CO)[C@@H](O)[C@H](O)[C@H]3O)cc(O)c12 [GALUTEOLIN], the logIC50 [1] was 1.33 and the pIC50 [2] was 4.32.

O=c1c(-c2ccc(O)cc2)coc2cc(O)cc(O)c12 [GENISTEIN] was tested, and the logIC50 [1] was 1.32 and the pIC50 [2] was 4.11.

Work on COc1cc(O)c2c(=O)cc(-c3ccc(OC)c(-c4c(O)cc(O)c5c(=O)cc(-c6ccc(O)cc6)oc45)c3)oc2c1 [GINKGETIN] yielded a logIC50 [1] of 1.74 and a pIC50 [2] of 4.01.

O=c1cc(-c2ccc(Oc3c(O)cc4oc(-c5ccc(O)cc5)cc(=O)c4c3O)cc2)oc2cc(O)cc(O)c12 [HINOKIFLAVONE] showed a logIC50 [1] of 1.62 and a pIC50 [2] of 4.11.

COc1c(O)cc2oc(-c3ccc(O)cc3)cc(=O)c2c1O [HISPIDULIN] was tested, and the logIC50 [1] was 1.14 and the pIC50 [2] was 4.33.

Work on O=c1c(O)c(-c2ccc(O)cc2)oc2cc(O)cc(O)c12 [KAEMPFEROL] yielded a logIC50 [1] of 1.23 and a pIC50 [2] of 4.23.

O=c1cc(-c2ccc(O)c(O)c2)oc2cc(O)cc(O)c12 [LUTEOLIN] was tested, and the logIC50 [1] was 0.984 and the pIC50 [2] was 4.47.

With O=c1c(O)c(-c2cc(O)c(O)c(O)c2)oc2cc(O)cc(O)c12 [MYRICETIN] the logIC50 [1] was 1.42 and the pIC50 [2] was 4.08.

In the case of O=c1c(O)c(-c2ccc(O)c(O)c2)oc2cc(O)cc(O)c12 [QUERCETIN], the logIC50 [1] was 1.25 and the pIC50 [2] was 4.23.

In the case of COc1cc(O)c2c(=O)c(O)c(-c3ccc(O)cc3)oc2c1 [RHAMNOCITRIN], the logIC50 [1] was 1.19 and the pIC50 [2] was 4.29.

Compound C[C@@H]1O[C@@H](OC[C@H]2O[C@@H](Oc3c(-c4ccc(O)c(O)c4)oc4cc(O)cc(O)c4c3=O)[C@H](O)[C@@H](O)[C@@H]2O)[C@H](O)[C@H](O)[C@H]1O [RUTIN] has a logIC50 [1] of 1.49 and a pIC50 [2] of 4.29.

With O=c1cc(-c2ccc(O)cc2)oc2cc(O)c(O)c(O)c12 [SCUTELLAREIN] the logIC50 [1] was 1.16 and the pIC50 [2] was 4.30.

For O=C1/C(=C/c2ccc(O)c(O)c2)Oc2cc(O)ccc21 [SULFURETIN], the logIC50 [1] was 0.903 and the pIC50 [2] was 4.53.

Work on O=c1cc(-c2ccc(O)cc2)oc2c([C@@H]3O[C@H](CO)[C@@H](O)[C@H](O)[C@H]3O)c(O)cc(O)c12 [VITEXIN] yielded a logIC50 [1] of 1.32 and a pIC50 [2] of 4.32.

— ChEMBL document CHEMBL1157844, “QSAR study of flavonoids and biflavonoids as influenza H1N1 virus neuraminidase inhibitors” (Eur J Med Chem, 2010)
